Assay [1] has as its target α1-adrenergic receptor. The assay can be described thus: Test of the bond to the α1-adrenergic receptor (inhibition of [3H]prazosin bond to rat cerebral cortex). Format: binding, rat (male Sprague Dawley). The conditions noted are these: [3H]prazosin 0.2 nM, rat cerebral cortex membranes, 30 min, 25° C., pH 7.7. Here is the method:
The cerebral cortices of male Sprague Dawley rats are homogenized at 4° C. in Tris-HCl 50 mM pH=7.7 and centrifuged at 50,000 g for 30 minutes at 4° C. The pellets are again suspended in the same buffer and centrifuged again at 50,000 g for 30 minutes at 4° C.
The filters are rinsed three times with the same buffer at 0-4° C. and their radioactivity is tested by liquid scintillation spectrometry.
The specific bonds are obtained by subtracting the non-specific bonds (determined in the presence of 10 μM of phentolamine (Sigma Chemical Co. St. Louis Mo.)) from the total bonds. The data relative to the bonds is analyzed by computer assisted iterative non-linear regression analysis, using the Ligand program (Munson, P. J., Rodbard, D. Anal. Biochem. 107:220 (1980)).

Assay [2] concerns prostatic urethrae. The assay can be described thus: Urethra Contraction Test (inhibition of phenylephrine contraction of prostatic urethra). The conditions noted are these: inhibition of contraction of rabbit prostatic urethra, agonist phenylephrine, compound 30 min before. On the set-up: species or system rabbit (male New Zealand). Here is the method: The urethrae are removed from male New Zealand rabibits, and cleaned of the surrounding connective tissues. Bands of prostatic urethrae (3 mm wide, 10-15 mm long) are suspended (1 g tension) in organ baths containing 10 ml of physiological solution (pH 7.4) at 37° C. under an atmosphere of 95% O2 /5% CO2; NaCl (118 mM); KCl (4.7 mM); CaCl2 (2.5 mM); KH2 PO4 (1.2 mM); MgSO4 (1.2 mM); NaHCO3 (25 mM); glucose (11 mM). The contractile responses are measured using force displacement transducers coupled to a Gould 8000S polygraph. A one hour period of equilibration or equalization is provided before the experiment. After equalization, the preparations are sensitized by a submaximal concentration of phenylephrine. Forty five minutes after the sensitization, a concentration-effect curve for the phenylephrine is established. In order to determine the effect of the test compounds, different preparations originating from the same animal are used in parallel. One preparation serves as a control whilst the others receive a concentration of a test compound introduced into the bath 30 minutes before the phenylephrine (Auguet, M. et al. European J. Pharmacol. 217:153 (1995)).
The dissociation constants (Kb) of the test compounds are determined using the following equation: Kb =[B]/(dose ratio--1); in which [B] is the concentration of test compound and (dose ratio) is the EC50 of phenylephrine in the presence of the test compound divided by the EC50 of the control preparation. These resultats are then expressed as the negative logarithm of Kb. The values of the EC50 are calculated from the maximum contractile response to the phenylephrine by computer analysis using a linear regression over the average tension values. The maximum contractile response of each preparation which was subjected to the test compound is determined by comparing the response provoked by the application of the sensitizing concentration of phenylephrine with the response provoked in the control preparation (which has not received the test compounds).

Assay [3] relates to aorta of the rabbit. The assay can be described thus: Test of the contraction of the aorta of the rabbit (phenylephrine). Set-up: species or system rabbit (male New Zealand). The conditions noted are these: agonist phenylephrine, compound 60 min before. Here is the method:
(§1) The aorta and the portal vein are extracted from male New-Zealand rabbits (2.5-3.5 kg, Dombes Romans, France) after cervical dislocation and cleaned of the surrounding connective tissues. […] The contractile responses are measured using force displacement transducers coupled to a Gould RS3400 polygraph. A one hour period of equilibration or equalization is provided before the experiment. […] When the contraction provoked by the phenylephrine is stabilized, carbachol (10 μM) is administered with the aim of controlling the disorganisation of the endothelium in the vessels. Seventy five minutes after the sensitization, a concentration-effect curve for the phenylephrine is established. In order to determine the effect of the test compounds, different preparations are used in parallel. One preparation serves as a control whilst the others receive different concentrations of test compounds introduced into the bath 60 minutes before the phenylephrine. The results are expressed as averages ±S.E.M. or percentage of contraction. […] The EC50 values are calculated from the maximum contractile response by computer analysis using a linear regression over the average tension values.

Assay [4] relates to aorta of the rat. Briefly: Test of the contraction of the aorta of the rat (phenylephrine). Set-up: species or system rat (male Sprague Dawley). The conditions noted are these: agonist phenylephrine, compound 60 min before. Here is the method:
(§2) The aorta and the portal vein are extracted from male Sprague Dawley rats (275-350 g, Charles River, France) after cervical dislocation and cleaned of the surrounding connective tissues. […] The contractile responses are measured using force displacement transducers either coupled to a Gould […] polygraph or connected to a data retrieval system ([…], France). A one hour period of equilibration or equalization is provided before the experiment. […] Seventy five minutes, after the sensitization, a concentration-effect curve for the phenylephrine is established. In order to determine the effect of the test compounds, different preparations are used in parallel. One preparation serves as a control whilst the others receive different test compounds introduced into the bath 60 minutes before the aministration of the phenylephrine. The results are expressed as averages ±S.E.M. or percentage of contraction. […] The EC50 values are calculated from the maximum contractile response by computer analysis using a linear regression over the average tension values.

Assay [5] deals with portal vein of the rat. Briefly: Test of the contraction of the portal vein of the rat (phenylephrine). Set-up: species or system rat (male Sprague Dawley). Here is the method:
as §2

Assay [6] has as its system saphenous vein of the rabbit. The assay can be described thus: Test of the contraction of the saphenous vein of the rabbit (phenylephrine). Set-up: species or system rabbit (male New Zealand). Here is the method:
The contractile responses are measured using force displacement transducers coupled to a Gould RS3400 polygraph. […] A one hour period of equilibration or equalization is provided before the experiment. During this equalization period, the tension of the venous rings is left to relax and the final tension is maintained at 0.5 g. After equalization, the preparations are sensitized by a submaximal concentration (3 μM) of phenylephrine. When the contraction triggered by the phenylephrine is stabilized, carbachol (10 μM) is administered in order to control the disorganisation of the endothelium in the vessels. Seventy five minutes after the sensitization, a concentration-effect curve for the phenylephrine is established. In order to determine the effect of the test compounds, different preparations are used in parallel. One preparation serves as a control whilst the others receive different test compounds introduced into the bath 60 minutes before the administration of the phenylephrine The results are expressed as averages ±S.E.M. or percentage of contraction. […] The EC50 values are calculated from the maximum contractile response by computer analysis using a linear regression over the average tension values.

Assay [7] deals with portal vein of the rabbit. The assay can be described thus: Test of the contraction of the portal vein of the rabbit (phenylephrine). Set-up: species or system rabbit (male New Zealand). Here is the method:
as §1

As to `COc1ccccc1N1CCN(CCCNC(=O)C(c2ccccc2)c2ccccc2)CC1` [Compound 13, N-[3-{4-(2-methoxyphenyl)-1-piperazinyl}-propyl]-α-phenyl-benzeneacetamide], the inhibition constant (Ki) in assay [1] was 30 nM. The “-log Kb” value in assay [2] is given as 8.2.

In turn, `Cc1ccc(C)c(N2CCN(CCCNC(=O)C(CO)c3ccccc3)CC2)c1` (racemic) [Compound 39, (±)-N-[3-{4-(2,5-dimethylphenyl)-1-piperazinyl}-propyl]-α-hydroxymethyl-benzeneacetamide] came in with a Ki in assay [1] of 27 nM. For the same molecule, in assay [2], the “-log Kb” value was determined as 7.3.

Turning to `COC(C(=O)NCCCN1CCN(c2cc(C)ccc2C)CC1)(c1ccccc1)c1ccccc1` [Compound 11, N-[3-{4-(2,5-dimethylphenyl)-1-piperazinyl}-propyl]-α-methoxy-α-phenyl-benzeneacetamide], in assay [1], the affinity, expressed as Ki, was 38 nM. Besides, the “-log Kb” value in assay [2] stood at 6.9.

In the case of `O=C(NCCCN1CCN(c2ccccc2Cl)CC1)C(O)(c1ccccc1)c1ccccc1` [Compound 9, N-[3-{4-(2-chlorophenyl)-1-piperazinyl}-propyl]-α-hydroxy-α-phenyl-benzeneacetamide], in assay [1], the affinity, expressed as Ki, was 28 nM. Besides, the “-log Kb” value in assay [2] came out at 8.1.

As for `Cc1ccc(C)c(N2CCN(CCCNC(=O)C(O)(c3ccccc3)c3ccccc3)CC2)c1` [Compound 7, N-[3-{4-(2. 5-dimethylphenyl)-1-piperazinyl}-propyl]-α-hydroxy-α-phenyl-benzeneacetamide], the inhibition constant Ki in assay [1] amounted to 30 nM. Besides, the “-log Kb” value in assay [2] came out at 8.1.

For the molecule `Cc1ccc(C)c(N2CCN(CCCNC(=O)[C@@](C)(O)c3ccccc3)CC2)c1` [Compound 45, S-(+)-N-[3-{4-(2,5-dimethylphenyl)-1-piperazinyl}-propyl]-α-hydroxy-α-methyl-benzeneacetamide], the Kb worked out at 63 nM in assay [3]; 45 nM in assay [4]; 1.4 nM in assay [5] (rat portal vein, agonist phenylephrine, compound 60 min before); 15 nM in assay [6] (rabbit saphenous vein, agonist phenylephrine, compound 60 min before); 1.6 nM in assay [7] (rabbit portal vein, agonist phenylephrine, compound 60 min before). Further, the “Selectivity Kb (Aorta)/Kb (Vein)” value is 32 in assay [5] (rat, aorta / portal vein) and 40 in assay [7] (rabbit, aorta / portal vein). The “Selectivity Kb (Salphenous vein)/Kb (Portal vein)” value in assay [6] (rabbit, saphenous vein / portal vein) stood at 8.4. Moreover, affinity in assay [1] was put at a Ki of 13 nM. Besides, in assay [2], the “-log Kb” value was 8.3.

As for `Cc1ccc(S(=O)(=O)NC(C(=O)NCCCN2CCN(c3cc(C)ccc3C)CC2)c2ccccc2)cc1` (racemic) [Compound 48, (±)-N-[3-{4-(2,5-dimethylphenyl)-1piperazinyl}-propyl]-α-(4-methylphenyl)-sulphonylamino-benzeneacetamide], the Ki in assay [1] worked out at 29 nM. Also, the “-log Kb” value in assay [2] was 7.02.

`CCC(O)(C(=O)NCCCN1CCN(c2cc(C)ccc2C)CC1)c1ccccc1` (racemic) [Compound 27, (±)-N-[3-{4-(2,5-dimethylphenyl)-1-piperazinyl}-propyl]-2-hydroxy-2-phenyl-butyramide] displayed a Ki in assay [1] of 31 nM. For the same molecule, in assay [2], the “-log Kb” value is listed as 7.6.

Turning to `Cc1ccc(C)c(N2CCN(CCCNC(=O)C(C)(O)c3cccc4ccccc34)CC2)c1` (racemic) [Compound 42, (±)-N-[3-{4-(2,5dimethylphenyl)-1-piperazinyl}-propyl]-α-hydroxy-α-methyl-1-naphthaleneacetamide], in assay [1], the inhibition constant Ki amounted to 22 nM. Besides, in assay [2], the “-log Kb” value is on record as 7.68.

Regarding `Cc1ccc(C)c(N2CCN(CCCNC(=O)[C@](C)(O)c3ccccc3)CC2)c1` [Compound 46, R-(-)-N-[3-{4-(2,5-dimethylphenyl)-1-piperazinyl}-propyl]-α-hydroxy-α-methyl-benzeneacetamide], in assay [1], the affinity, expressed as Ki, was 48 nM. Besides, in assay [2], the “-log Kb” value is on record as 7.5.

Consider `N#Cc1ccccc1N1CCN(CCCNC(=O)C(O)(c2ccccc2)c2ccccc2)CC1` [Compound 10, N-[3-{4-(2-cyanophenyl)-1-piperazinyl}-propyl]-α-hydroxy-α-phenyl-benzeneacetamide], for which, in assay [1], the affinity, expressed as Ki, was 27 nM. Further, the “-log Kb” value in assay [2] stood at 8.2.

In assay [1], `CCOc1ccccc1N1CCN(CCCNC(=O)C(O)(c2ccccc2)c2ccccc2)CC1` [Compound 8, N-[3-{4-(2-ethoxyphenyl)-1-piperazinyl}-propyl]-α-hydroxy-α-phenyl-benzeneacetamide] returned an inhibitory constant (Ki) of 16 nM. The “-log Kb” value in assay [2] is given as 8.2.

Broadly, the Ki is the dissociation constant of the complex between target and ligand, obtained from inhibition or displacement. A low value points to a stronger hold on the target.
